Where a name gives a salt, the structure may show the parent alone.
Tested on: Aβ1-42 production in H4 cells stably transfected with APP751 containing the Swedish mutation
Experiment: Cellular assay for inhibition of Aβ1-42 production (H4 APP751 SWE clone 8.20)
Type: cell-based
Details: 19 h, H4 APP751 SWE clone 8.20 cells, 19 h incubation; read-out: Aβ42 cellular IC50
Method: Cellular Assays for Inhibition of Aβ1-40 and Aβ1-42 Production
H4 cells stably transfected with APP751 containing the Swedish mutation (H4 APP751 SWE clone 8.20, developed at BMS) were maintained in log phase through twice weekly passage at a 1:20 split. […] Following incubation for 19 h in 5% CO2 at 37° C., plates were briefly centrifuged (1000 rpm, 5 min). A 10 μl aliquot from each well was transferred to a second assay plate (Costar 3709) for Aβ40 measurements. Antibody cocktails were freshly prepared by dilution into 40 mM Tris-HCl (pH 7.4) with 0.2% BSA and added to assay plates. For Aβ42 measurements, antibodies specific for the Aβ42 neoepitope (565, developed at BMS; conjugated to the Wallac reagent (Perkin Elmer)) and the N-terminal sequence of Aβ peptide (26D6, developed at SIBIA; conjugated to APC (Perkin Elmer)) were mixed and 20 μl of the mixture was added to each well of the incubated cell plate yielding a final concentration of 0.8 ng/well 565 and 75 ng/well 26D6. For the Aβ40 measurements, antibodies specific for the Aβ40 neoepitope (TSD, developed at BMS; conjugated to the Wallac reagent (Perkin Elmer)) and 26D6 as described above were mixed and 20 μl of the mixture was added to the 10 μl aliquots which had been removed previously from the cell plate yielding a final concentration of 1.6 ng/well TSD and 17.5 ng/well 26D6. Assay plates containing antibodies were sealed with aluminum foil and incubated overnight at 4° C. Signal was determined using a Viewlux counter (Perkin Elmer) and IC50 values determined using curve fitting in CurveMaster (Excel Fit based).

## COc1cncc(-c2ccc3c(c2)[C@@]2(C)N=C(N)SC[C@H]2CCC3)c1 (relative stereo) [Example 11, rel-(4aS,11bS)-10-(5-methoxypyridin-3-yl)-11b-methyl-4,4a,5,6,7,11b-hexahydrobenzo[6,7]cyclohepta[1,2-d][1,3]thiazin-2-amine, bis(2,2,2-trifluoroacetate)]
  IC50: 3.4 µM

## Cc1ncc(-c2ccc3c(c2)[C@@]2(C)N=C(N)SC[C@H]2CCO3)s1 (relative stereo) [Example 26, rel-(4aS,11bS)-11b-Methyl-10-(2-methylthiazol-5-yl)-4a,5,6,11b-tetrahydro-4H-benzo[2,3]oxepino[4,5-d][1,3]thiazin-2-amine, 2,2,2-trifluoroacetate salt]
  IC50: 8.5 µM

## C[C@@]12N=C(N)SC[C@@H]1CCOc1ccc(NC(=O)c3ccc(Cl)cn3)cc12 [Example 33b, N-((4aR,11bR)-2-amino-11b-methyl-4a,5,6,11b-tetrahydro-4H-benzo[2,3]oxepino[4,5-d][1,3]thiazin-10-yl)-5-chloropicolinamide]
  IC50: 7.8 µM

## C[C@]12N=C(N)SC[C@H]1CCc1ccc(NC(=O)c3ccc(Cl)cn3)cc12 (relative stereo) [Example 7, rel-N-((4aS,10bS)-2-Amino-10b-methyl-4a,5,6,10b-tetrahydro-4H-naphtho[1,2-d][1,3]thiazin-9-yl)-5-chloropicolinamide, 2,2,2-trifluoroacetate]
  IC50: 1.1 µM

## COc1cccc(-c2ccc3c(c2)[C@@]2(C)N=C(N)SC[C@H]2CCC3)c1 (relative stereo) [Example 12, rel-(4aS,11bS)-10-(3-methoxyphenyl)-11b-methyl-4,4a,5,6,7,11b-hexahydrobenzo[6,7]cyclohepta[1,2-d][1,3]thiazin-2-amine, 2,2,2-trifluoroacetate]
  IC50: 3.4 µM

## NC1=N[C@H]2c3cc(-c4cncnc4)ccc3CCC[C@H]2CS1 [Example 1b, (4aR,11bR)-10-Pyrimidin-5-yl-4,4a,5,6,7,11b-hexahydro-3-thia-1-aza-dibenzo[a,c]cyclohepten-2-ylamine]
  IC50: 28 µM

## C[C@]12N=C(N)SC[C@H]1CCOc1ccc(NC(=O)c3ncc(Cl)cc3Cl)cc12 (relative stereo) [Example 34, rel-N-((4aS,11bS)-2-Amino-11b-methyl-4a,5,6,11b-tetrahydro-4H-benzo[2,3]oxepino[4,5-d][1,3]thiazin-10-yl)-3,5-dichloropicolinamide, 2,2,2-trifluoroacetate salt]
  IC50: 0.026 µM

## Cn1cc(-c2ccc3c(c2)[C@@]2(C)N=C(N)SC[C@H]2CCO3)cn1 (relative stereo) [Example 23, rel-(4aS,11bS)-11b-Methyl-10-(1-methyl-1H-pyrazol-4-yl)-4a,5,6,11b-tetrahydro-4H-benzo[2,3]oxepino[4,5-d][1,3]thiazin-2-amine, bis(2,2,2-trifluoroacetate)]
  IC50: 5.1 µM

## C[C@]12N=C(N)SC[C@H]1CCc1ccc(NC(=O)c3ccc(Cl)cn3)cc12 [Example 7b, N-((4aS,10bS)-2-Amino-10b-methyl-4a,5,6,10b-tetrahydro-4H-naphtho[1,2-d][1,3]thiazin-9-yl)-5-chloropicolinamide]
  IC50: 1.2 µM

## C[C@@]12N=C(N)SC[C@@H]1CCCc1ccc(NC(=O)c3ccc(Cl)cn3)cc12 [Example 3b, 5-Chloro-pyridine-2-carboxylic acid ((4aR,11bR)-2-amino-11b-methyl-4,4a,5,6,7,11b-hexahydro-3-thia-1-aza-dibenzo[a,c]cyclohepten-10-yl)-amide]
  IC50: 6.7 µM

## C[C@]12N=C(N)SC[C@H]1CCCc1ccc(NC(=O)c3ccc(C#N)cn3)cc12 [Example 44b, N-((4aS,11bS)-2-Amino-11b-methyl-4,4a,5,6,7,11b-hexahydrobenzo[6,7]cyclohepta[1,2-d][1,3]thiazin-10-yl)-5-cyanopicolinamide]
  IC50: 0.021 µM

## C[C@]12N=C(N)SC[C@H]1CCOc1ccc(NC(=O)c3ncc(Cl)cc3Cl)cc12 [Example 34a, N-((4aS,11bS)-2-Amino-11b-methyl-4a,5,6,11b-tetrahydro-4H-benzo[2,3]oxepino[4,5-d][1,3]thiazin-10-yl)-3,5-dichloropicolinamide]
  IC50: 0.0069 µM

## C[C@]12N=C(N)SC[C@H]1CCOc1ccc(-c3cnoc3)cc12 (relative stereo) [Example 25, rel-(4aS,11bS)-10-(Isoxazol-4-yl)-11b-methyl-4a,5,6,11b-tetrahydro-4H-benzo[2,3]oxepino[4,5-d][1,3]thiazin-2-amine, 2,2,2-trifluoroacetate salt]
  IC50: 18 µM

## C[C@]12N=C(N)SC[C@H]1CCc1ccc(-c3cncnc3)cc12 (relative stereo) [Example 5, rel-(4aS,10bS)-10b-Methyl-9-(pyrimidin-5-yl)-4a,5,6,10b-tetrahydro-4H-naphtho[1,2-d][1,3]thiazin-2-amine, bis(2,2,2-trifluoroacetate)]
  IC50: 4.6 µM

## C[C@]12N=C(N)SC[C@H]1CCc1ccc(NC(=O)c3ccc(F)cn3)cc12 (relative stereo) [Example 9, rel-N-((4aS,10bS)-2-amino-10b-methyl-4a,5,6,10b-tetrahydro-4H-naphtho[1,2-d][1,3]thiazin-9-yl)-5-fluoropicolinamide, 2,2,2-trifluoroacetate]
  IC50: 2.1 µM

## C[C@]12N=C(N)SC[C@H]1CCOc1ccc(-c3cc4cc(C#N)ccc4[nH]3)cc12 (relative stereo) [Example 28, rel-2-((4aS,11bS)-2-amino-11b-methyl-4a,5,6,11b-tetrahydro-4H-benzo[2,3]oxepino[4,5-d][1,3]thiazin-10-yl)-1H-indole-5-carbonitrile, 2,2,2-trifluoroacetate salt]
  IC50: 9.7 µM

## C[C@]12N=C(N)SC[C@H]1CCc1ccc(-c3cn[nH]c3)cc12 (relative stereo) [Example 19, rel-(4aS,10bS)-10b-Methyl-9-(1H-pyrazol-4-yl)-4a,5,6,10b-tetrahydro-4H-naphtho[1,2-d][1,3]thiazin-2-amine, bis(2,2,2-trifluoroacetate)]
  IC50: 8 µM

## C[C@@]12N=C(N)SC[C@@H]1CCOc1ccc(NC(=O)c3ccc(F)cn3)cc12 [Example 36b, N-((4aR,11bR)-2-Amino-11b-methyl-4a,5,6,11b-tetrahydro-4H-benzo[2,3]oxepino[4,5-d][1,3]thiazin-10-yl)-5-fluoropicolinamide]
  IC50: 10 µM

## C[C@]12N=C(N)SC[C@H]1CCOc1ccc(Nc3ncccc3C#N)cc12 (relative stereo) [Example 39, rel-2-(((4aS,11bS)-2-Amino-11b-methyl-4a,5,6,11b-tetrahydro-4H-benzo[2,3]oxepino[4,5-d][1,3]thiazin-10-yl)amino)nicotinonitrile, bis(2,2,2-trifluoroacetate)]
  IC50: > 30 µM

## C[C@]12N=C(N)SC[C@H]1CCOc1ccc(-n3cccn3)cc12 (relative stereo) [Example 32, rel-(4aS,11bS)-11b-Methyl-10-(1H-pyrazol-1-yl)-4a,5,6,11b-tetrahydro-4H-benzo[2,3]oxepino[4,5-d][1,3]thiazin-2-amine, 2,2,2-trifluoroacetate]
  IC50: 11 µM

## C[C@@]12N=C(N)SC[C@@H]1CCCc1ccc(NC(=O)c3ccc(C#N)cn3)cc12 [Example 44a, N-((4aR,11bR)-2-Amino-11b-methyl-4,4a,5,6,7,11b-hexahydrobenzo[6,7]cyclohepta[1,2-d][1,3]thiazin-10-yl)-5-cyanopicolinamide]
  IC50: 6.8 µM

## C[C@]12N=C(N)SC[C@H]1CCCc1ccc(-c3cncc(F)c3)cc12 (relative stereo) [Example 14, rel-(4aS,11bS)-10-(5-fluoropyridin-3-yl)-11b-methyl-4,4a,5,6,7,11b-hexahydrobenzo[6,7]cyclohepta[1,2-d][1,3]thiazin-2-amine, bis(2,2,2-trifluoroacetate)]
  IC50: 2.1 µM

## CC#Cc1cncc(-c2ccc3c(c2)[C@@]2(C)N=C(N)SC[C@H]2CCC3)c1 (relative stereo) [Example 15, rel-(4aS,11bS)-11b-Methyl-10-(5-(prop-1-yn-1-yl)pyridin-3-yl)-4,4a,5,6,7,11b-hexahydrobenzo[6,7]cyclohepta[1,2-d][1,3]thiazin-2-amine, bis(2,2,2-trifluoroacetate)]
  IC50: 3.6 µM

## C[C@@]12N=C(N)SC[C@@H]1CCCc1ccc(NC(=O)c3ccc(OC(F)F)cn3)cc12 [Example 46b, N-((4aR,11bR)-2-Amino-11b-methyl-4,4a,5,6,7,11b-hexahydrobenzo[6,7]cyclohepta[1,2-d][1,3]thiazin-10-yl)-5-(difluoromethoxy)picolinamide]
  IC50: 3.5 µM

## CC#Cc1cncc(-c2ccc3c(c2)[C@@]2(C)N=C(N)SC[C@H]2CC3)c1 (relative stereo) [Example 21, rel-(4aS,10bS)-10b-methyl-9-(5-(prop-1-yn-1-yl)pyridin-3-yl)-4,5,6,10b-tetrahydro-4H-naphtho[1,2-d][1,3]thiazin-2-amine, bis(2,2,2-trifluoroacetate)]
  IC50: 1.8 µM

## C[C@]12N=C(N)SC[C@H]1COc1cc(F)c(NC(=O)c3ccc(Cl)cn3)cc12 (relative stereo) [Example 18, rel-N-((4aR,10bS)-2-Amino-8-fluoro-10b-methyl-4,4a,5,10b-tetrahydrochromeno[4,3-d][1,3]thiazin-9-yl)-5-chloropicolinamide, 2,2,2-trifluoroacetate]
  IC50: 6.1 µM

— US8604024B2, “Compounds for the reduction of beta-amyloid production” (Bristol-Myers Squibb Company, priority 2011, dated 2013)
